Experimental data as given in ChEMBL document CHEMBL1201862, “PubChem BioAssay data set” (2004).
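Each compound was tested at five concentrations against cells in 96-well plates for 48 hours. The concentration for 50% growth inhibition is given as GI50.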 Active and inactive are the calls of the source. Rule as the data show it: active = GI50 up to about 1.1 µM and inactive = higher.

What was measured:
Assay in all cases: NCI-60 cell line screen, 48 h
786-0 = test system: 786-0
A498 = test system: A498
A549 = test system: A549
ACHN = test system: ACHN
CAKI-1 = test system: CAKI-1
CCRF-CEM = test system: CCRF-CEM
COLO 205 = test system: COLO 205
DU-145 = test system: DU-145
EKVX = test system: EKVX
HCC 2998 = test system: HCC 2998
HCT-116 = test system: HCT-116
HCT-15 = test system: HCT-15
HOP-62 = test system: HOP-62
HOP-92 = test system: HOP-92
HT-29 = test system: HT-29
Hs-578T = test system: Hs-578T
IGROV-1 = test system: IGROV-1
K562 = test system: K562
KM12 = test system: KM12
LOX IMVI = test system: LOX IMVI
M14 = test system: M14
MCF7 = test system: MCF7
MDA-MB-231 = test system: MDA-MB-231
MDA-MB-435 = test system: MDA-MB-435
MDA-N = test system: MDA-N
MOLT-4 = test system: MOLT-4
Malme-3M = test system: Malme-3M
NCI-H226 = test system: NCI-H226
NCI-H23 = test system: NCI-H23
NCI-H460 = test system: NCI-H460
NCI-H522 = test system: NCI-H522
NCI/ADR-RES = test system: NCI/ADR-RES
OVCAR-3 = test system: OVCAR-3
OVCAR-4 = test system: OVCAR-4
OVCAR-5 = test system: OVCAR-5
OVCAR-8 = test system: OVCAR-8
PC-3 = test system: PC-3
RPMI-8226 = test system: RPMI-8226
RXF 393 = test system: RXF 393
SF-268 = test system: SF-268
SF-295 = test system: SF-295
SF-539 = test system: SF-539
SK-MEL-28 = test system: SK-MEL-28
SK-MEL-2 = test system: SK-MEL-2
SK-MEL-5 = test system: SK-MEL-5
SK-OV-3 = test system: SK-OV-3
SN12C = test system: SN12C
SNB-19 = test system: SNB-19
SNB-75 = test system: SNB-75
SR = test system: SR
SW-620 = test system: SW-620
T47D = test system: T47D
TK-10 = test system: TK-10
U-251 = test system: U-251
UACC-257 = test system: UACC-257
UACC-62 = test system: UACC-62
UO-31 = test system: UO-31
HL-60 = test system: HL-60

CCCCCNc1nonc1N was tested, and the GI50 (786-0) was > 100 µM (inactive), the GI50 (A498) was > 84.9 µM (inactive) and the GI50 (A549) was > 100 µM (inactive). For the same molecule, the GI50 (ACHN) was > 100 µM (inactive), the GI50 (CAKI-1) was > 100 µM (inactive) and the GI50 (CCRF-CEM) was > 31.6 µM (inactive). The GI50 (COLO 205) was > 100 µM (inactive), the GI50 (DU-145) was > 100 µM (inactive) and the GI50 (EKVX) was > 100 µM (inactive). For the same molecule, the GI50 (HCC 2998) was > 100 µM (inactive), the GI50 (HCT-116) was > 100 µM (inactive) and the GI50 (HCT-15) was > 100 µM. For the same molecule, the GI50 (HOP-62) was > 100 µM (inactive), the GI50 (HOP-92) was > 100 µM (inactive) and the GI50 (HT-29) was > 100 µM (inactive). The GI50 (Hs-578T) was > 72.8 µM (inactive), the GI50 (IGROV-1) was > 100 µM (inactive) and the GI50 (K562) was > 100 µM (inactive). The GI50 (KM12) was > 100 µM (inactive), the GI50 (LOX IMVI) was > 100 µM (inactive) and the GI50 (M14) was > 100 µM (inactive). For the same molecule, the GI50 (MCF7) was > 100 µM (inactive), the GI50 (MDA-MB-231) was > 100 µM (inactive) and the GI50 (MDA-MB-435) was > 100 µM (inactive). For the same molecule, the GI50 (MDA-N) was > 100 µM (inactive), the GI50 (MOLT-4) was > 100 µM (inactive) and the GI50 (Malme-3M) was > 100 µM (inactive). For the same molecule, the GI50 (NCI-H226) was > 100 µM (inactive), the GI50 (NCI-H23) was > 100 µM (inactive) and the GI50 (NCI-H460) was > 100 µM (inactive). The GI50 (NCI-H522) was > 100 µM (inactive), the GI50 (NCI/ADR-RES) was > 100 µM (inactive) and the GI50 (OVCAR-3) was > 100 µM (inactive). For the same molecule, the GI50 (OVCAR-4) was > 88.3 µM (inactive), the GI50 (OVCAR-5) was > 100 µM (inactive) and the GI50 (OVCAR-8) was > 100 µM (inactive). The GI50 (PC-3) was > 100 µM (inactive), the GI50 (RPMI-8226) was > 100 µM (inactive) and the GI50 (RXF 393) was > 100 µM (inactive). The GI50 (SF-268) was > 100 µM (inactive), the GI50 (SF-295) was > 100 µM (inactive) and the GI50 (SF-539) was > 100 µM (inactive). The GI50 (SK-MEL-28) was > 100 µM (inactive), the GI50 (SK-MEL-2) was > 100 µM (inactive) and the GI50 (SK-MEL-5) was > 100 µM (inactive). The GI50 (SK-OV-3) was > 100 µM (inactive), the GI50 (SN12C) was > 100 µM (inactive) and the GI50 (SNB-19) was > 100 µM (inactive). The GI50 (SNB-75) was > 100 µM (inactive), the GI50 (SR) was > 100 µM (inactive) and the GI50 (SW-620) was > 100 µM (inactive). The GI50 (T47D) was > 100 µM (inactive), the GI50 (TK-10) was > 100 µM (inactive) and the GI50 (U-251) was > 100 µM (inactive). The GI50 (UACC-257) was > 100 µM (inactive), the GI50 (UACC-62) was > 100 µM (inactive) and the GI50 (UO-31) was > 100 µM (inactive).

For Cc1ccc(S(=O)(=O)NCCCSCCN)cc1, the GI50 (A498) was 4.99 µM (inactive), the GI50 (A549) was > 100 µM (inactive) and the GI50 (ACHN) was > 100 µM (inactive). The GI50 (CCRF-CEM) was > 100 µM (inactive), the GI50 (COLO 205) was > 100 µM (inactive) and the GI50 (DU-145) was > 100 µM (inactive). The GI50 (HCC 2998) was > 100 µM (inactive), the GI50 (HCT-116) was > 100 µM (inactive) and the GI50 (HCT-15) was > 100 µM. For the same molecule, the GI50 (HL-60) was > 100 µM (inactive), the GI50 (HOP-92) was > 100 µM (inactive) and the GI50 (HT-29) was > 100 µM (inactive). The GI50 (Hs-578T) was > 100 µM (inactive), the GI50 (K562) was > 100 µM (inactive) and the GI50 (KM12) was > 100 µM (inactive). For the same molecule, the GI50 (LOX IMVI) was < 0.01 µM (active), the GI50 (M14) was > 100 µM (inactive) and the GI50 (MCF7) was > 100 µM (inactive). For the same molecule, the GI50 (MDA-MB-231) was > 100 µM (inactive), the GI50 (MDA-MB-435) was > 100 µM (inactive) and the GI50 (MDA-N) was > 100 µM (inactive). For the same molecule, the GI50 (MOLT-4) was > 100 µM (inactive), the GI50 (NCI-H226) was > 100 µM (inactive) and the GI50 (NCI-H23) was > 100 µM (inactive). The GI50 (NCI-H460) was > 100 µM (inactive), the GI50 (NCI-H522) was > 100 µM (inactive) and the GI50 (NCI/ADR-RES) was > 100 µM (inactive). The GI50 (OVCAR-3) was > 100 µM (inactive), the GI50 (OVCAR-4) was > 100 µM (inactive) and the GI50 (OVCAR-8) was > 100 µM (inactive). The GI50 (PC-3) was > 100 µM (inactive), the GI50 (RXF 393) was > 100 µM (inactive) and the GI50 (SF-268) was > 100 µM (inactive). For the same molecule, the GI50 (SF-295) was > 100 µM (inactive), the GI50 (SK-MEL-28) was > 100 µM (inactive) and the GI50 (SK-MEL-5) was 22 µM (inactive). The GI50 (SK-OV-3) was > 100 µM (inactive), the GI50 (SN12C) was > 100 µM (inactive) and the GI50 (SNB-19) was > 100 µM (inactive). For the same molecule, the GI50 (SNB-75) was > 100 µM (inactive), the GI50 (SR) was > 100 µM (inactive) and the GI50 (SW-620) was > 100 µM (inactive). For the same molecule, the GI50 (T47D) was > 100 µM (inactive), the GI50 (TK-10) was > 100 µM (inactive) and the GI50 (U-251) was > 100 µM (inactive). The GI50 (UACC-257) was > 100 µM (inactive) and the GI50 (UO-31) was > 100 µM (inactive).

O=C1CC(CC(=O)c2ccc(Br)cc2)C(O)=C1C(=O)c1ccc(Br)cc1 (stereo not given) was tested, and the GI50 (786-0) was > 100 µM (inactive), the GI50 (A498) was 77.1 µM (inactive) and the GI50 (A549) was > 100 µM (inactive). The GI50 (ACHN) was > 100 µM (inactive), the GI50 (CAKI-1) was > 100 µM (inactive) and the GI50 (CCRF-CEM) was 53.2 µM (inactive). For the same molecule, the GI50 (COLO 205) was > 100 µM (inactive), the GI50 (DU-145) was > 100 µM (inactive) and the GI50 (EKVX) was > 100 µM (inactive). For the same molecule, the GI50 (HCC 2998) was > 100 µM (inactive), the GI50 (HCT-116) was 54.2 µM (inactive) and the GI50 (HCT-15) was > 100 µM. The GI50 (HL-60) was > 100 µM (inactive), the GI50 (HOP-62) was 94.4 µM (inactive) and the GI50 (HOP-92) was 30.1 µM (inactive). For the same molecule, the GI50 (HT-29) was 49.2 µM (inactive), the GI50 (Hs-578T) was 50 µM (inactive) and the GI50 (IGROV-1) was > 100 µM (inactive). The GI50 (K562) was 44.9 µM (inactive), the GI50 (KM12) was 11.5 µM (inactive) and the GI50 (LOX IMVI) was 79.1 µM (inactive). For the same molecule, the GI50 (M14) was 85.5 µM (inactive), the GI50 (MCF7) was > 100 µM (inactive) and the GI50 (MDA-MB-231) was 72.9 µM (inactive). The GI50 (MDA-MB-435) was > 100 µM (inactive), the GI50 (MDA-N) was > 100 µM (inactive) and the GI50 (MOLT-4) was 41.7 µM (inactive). For the same molecule, the GI50 (Malme-3M) was 69.7 µM (inactive), the GI50 (NCI-H226) was > 100 µM (inactive) and the GI50 (NCI-H23) was 87.7 µM (inactive). The GI50 (NCI-H460) was 50.7 µM (inactive), the GI50 (NCI-H522) was 51.6 µM (inactive) and the GI50 (NCI/ADR-RES) was > 100 µM (inactive). The GI50 (OVCAR-3) was 32.6 µM (inactive), the GI50 (OVCAR-5) was > 100 µM (inactive) and the GI50 (OVCAR-8) was 99.8 µM (inactive). For the same molecule, the GI50 (PC-3) was 98.2 µM (inactive), the GI50 (RPMI-8226) was > 100 µM (inactive) and the GI50 (RXF 393) was > 100 µM (inactive). The GI50 (SF-268) was 87.1 µM (inactive), the GI50 (SF-295) was 53.1 µM (inactive) and the GI50 (SF-539) was 56.4 µM (inactive). The GI50 (SK-MEL-28) was > 100 µM (inactive), the GI50 (SK-MEL-2) was > 100 µM (inactive) and the GI50 (SK-MEL-5) was > 100 µM (inactive). The GI50 (SK-OV-3) was > 100 µM (inactive), the GI50 (SN12C) was > 100 µM (inactive) and the GI50 (SNB-19) was 56.2 µM (inactive). For the same molecule, the GI50 (SR) was 44.3 µM (inactive), the GI50 (SW-620) was > 100 µM (inactive) and the GI50 (T47D) was 71.6 µM (inactive). For the same molecule, the GI50 (TK-10) was > 100 µM (inactive), the GI50 (U-251) was 45.4 µM (inactive) and the GI50 (UACC-257) was > 100 µM (inactive). For the same molecule, the GI50 (UACC-62) was 42.6 µM (inactive) and the GI50 (UO-31) was 57.9 µM (inactive).
